64 compounds from PubChem BioAssay AID977613 (Broad Institute, 2014) can be followed below.

Active and inactive are the calls of the source. The rule behind the calls is not given here. Where only a bound is given, the exact number is not on record here.

The assay concerns Broad 7084-01 inhibitor HTS, set 2. Briefly: single-concentration hits, screen 7084 set 2 (AID 977613).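 Note: host cells are infected with parasite promastigotes that become internalized.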
For the compound `O=C(NC1CCCC1)N1CCCCN2[C@H](C1)[C@@H](c1ccc(-c3cccnc3)cc1)[C@@H]2CO`, the active concentration is > 10 µM (inactive).

As to `CC(C)NC(=O)N1[C@H](CO)[C@H](c2ccccc2-c2ccc(F)cc2)[C@@H]1C#N`, the active concentration was > 10 µM (inactive).

`COC(=O)[C@H]1[C@H](CO)[C@H]2Cn3c(ccc(-c4cccc(OC)c4)c3=O)[C@H]2N1Cc1nccs1`: the active concentration was > 10 µM (inactive).

As for `O=C(Nc1ccc(F)cc1)N1CC(=O)N2[C@H](CO)[C@H](c3ccc(C#Cc4cccnc4)cc3)[C@H]2C1`, the active concentration is > 10 µM (inactive).

On to `COCCNC(=O)[C@@H]1[C@@H](CO)[C@@H]2Cn3c(cccc3=O)[C@H]1N2S(=O)(=O)c1ccccc1C`, for which the active concentration is > 10 µM (inactive).

With `O=C([C@H]1[C@H](CO)[C@H]2Cn3c(cccc3=O)[C@H]2N1Cc1ccccc1Cl)N1CCCCC1`, the active concentration was > 10 µM (inactive).

For `O=C(c1cccc(F)c1)N1CC2(C1)[C@H](c1ccccc1)[C@@H](CO)N2C(=O)C1CCCCC1`, the active concentration was > 10 µM (inactive).

As for `COc1ccc(C#Cc2ccc([C@H]3[C@@H](CO)N4C(=O)CN(C(=O)c5ccc(F)cc5)C[C@H]34)cc2)cc1`, the active concentration was > 10 µM (inactive).

Turning to `OC[C@@H]1[C@H](c2ccc(C#CC3(O)CCCC3)cc2)[C@@H]2CN(Cc3cncnc3)CCCCN12`, the active concentration was > 10 µM (inactive).

Consider `CN1c2ccc(C3=CCCCC3)cc2[C@H]2[C@H](CCN2C(=O)C2CCCC2)[C@@H]1CO`, for which the active concentration is > 10 µM (inactive).

For the compound `C[C@@H](NC(=O)[C@@H]1[C@@H](CO)[C@@H]2Cn3c(ccc(-c4ccncc4)c3=O)[C@@H]2N1C)c1ccccc1`, the active concentration was > 10 µM (inactive).

Regarding `COc1ccccc1S(=O)(=O)N1CC[C@H]2[C@H](CO)Nc3ccc(-c4ccc(C#N)cc4)cc3[C@H]21`, the active concentration was > 10 µM (inactive).

Take `N#C[C@@H]1[C@H](c2ccccc2C2=CCCCC2)[C@H](CO)N1C(=O)C1CCOCC1`: the active concentration was > 10 µM (inactive).

With `N#C[C@@H]1[C@@H](c2ccccc2C2=CCCCC2)[C@@H](CO)N1S(=O)(=O)c1cccc(F)c1`, the active concentration was > 10 µM (inactive).

With `COc1ccc(-c2ccc3c(c2)[C@@H]2[C@@H](CCN2C(=O)CN2CCOCC2)[C@@H](CO)N3)cc1`, the active concentration is > 10 µM (inactive).

As for `O=C(Cc1ccccn1)N1CC2(C1)[C@H](c1ccccc1)[C@@H](CO)N2C(=O)c1cccnc1`, the active concentration was > 10 µM (inactive).

Regarding `CCC(=O)N1[C@H](CO)[C@@H](c2ccc(/C=C/c3ccccc3)cc2)C12CN(S(C)(=O)=O)C2`, the active concentration was > 10 µM (inactive).

On to `CCCNC(=O)N1CC2(CN(C(=O)Cc3cccnc3)C2)c2c([nH]c3cc(OC)ccc23)[C@H]1CO`, for which the active concentration is > 10 µM (inactive).

As to `O=C(Nc1cc(F)ccc1F)N1CC(=O)N2[C@H](C1)[C@@H](c1ccc(/C=C/c3ccccc3)cc1)[C@@H]2CO`, the active concentration is > 10 µM (inactive).

In the case of `CC(C)C#Cc1ccc([C@H]2[C@H](CO)N3C(=O)CN(C(=O)Cc4ccccc4)C[C@@H]23)cc1`, the active concentration is > 10 µM (inactive).

Turning to `N#Cc1ccc(-c2ccc3c(c2)[C@H]2[C@H](CCN2C(=O)C2CCCCC2)[C@H](CO)N3)cc1`, the active concentration is > 10 µM (inactive).

With `OC[C@H]1[C@H](c2ccc(Br)cc2)[C@H]2CN(Cc3ccccn3)CCCCN21`, the active concentration was under 10 µM.

With `O=C(CC1CC1)N1CC(=O)N2[C@H](CO)[C@@H](c3ccc(/C=C/c4ccccc4)cc3)[C@@H]2C1`, the active concentration was > 10 µM (inactive).

In the case of `CN1C(=O)c2cc(NS(C)(=O)=O)ccc2OC[C@H]2O[C@H](CC(=O)N3CCOCC3)CC[C@@H]21`, the active concentration is > 10 µM (inactive).

With `O=C(C[C@@H]1CC[C@@H]2[C@H](COC[C@H](O)CN2C(=O)c2ccc3c(c2)OCO3)O1)NC1CCC1`, the active concentration was > 10 µM (inactive).

In the case of `CN1C(=O)c2cc(NS(C)(=O)=O)ccc2OC[C@H]2O[C@@H](CC(=O)NC3CCCCC3)CC[C@H]21`, the active concentration is > 10 µM (inactive).

Regarding `C[C@H](NC(=O)[C@@H]1[C@@H](CO)[C@@H]2Cn3c(cccc3=O)[C@H]1N2CCC(F)(F)F)c1ccccc1`, the active concentration is > 10 µM (inactive).

As for `CN(C)C(=O)C[C@@H]1CC[C@H]2[C@@H](COC[C@H](O)CN2C(=O)C2CC2)O1`, the active concentration was > 10 µM (inactive).

Turning to `Cc1ccccc1-c1ccc([C@@H]2[C@@H](CO)N3CCCCN(S(=O)(=O)Cc4ccccc4)C[C@H]23)cc1`, the active concentration was > 10 µM (inactive).

Take `CC(C)CC#Cc1ccc([C@H]2[C@H](CO)N3C(=O)CN(C(=O)c4ccccn4)C[C@@H]23)cc1`: the active concentration was > 10 µM (inactive).

`O=C(C[C@H]1CC[C@@H]2[C@H](COC[C@@H](O)CN2Cc2cc(F)cc(F)c2)O1)NC1CCC1`: the active concentration was > 10 µM (inactive).

In the case of `COc1cccc(CN2CC3(C2)[C@H](c2ccccc2)[C@H](CO)N3C(=O)Cc2ccccc2)c1`, the active concentration is > 10 µM (inactive).

With `N#C[C@@H]1[C@@H](c2ccccc2-c2ccccc2F)[C@@H](CO)N1C(=O)C1CCC1`, the active concentration was > 10 µM (inactive).

As for `Cc1ccc(CN2CC(=O)N3[C@H](C2)[C@H](c2ccc(-c4ccccc4F)cc2)[C@@H]3CO)cc1`, the active concentration is > 10 µM (inactive).

Consider `C/C=C/c1ccc([C@@H]2[C@@H](CO)N3C(=O)CN(S(=O)(=O)c4ccccc4)C[C@H]23)cc1`, for which the active concentration is > 10 µM (inactive).

Take `COc1cccc(NC(=O)N2C[C@@H](O)COC[C@H]3O[C@@H](CC(=O)NC4CCC4)CC[C@@H]32)c1`: the active concentration is > 10 µM (inactive).

Turning to `COc1ccccc1-c1ccccc1[C@@H]1[C@@H](C#N)N(C(=O)C2CCOCC2)[C@H]1CO`, the active concentration was > 10 µM (inactive).

As for `O=C(C[C@H]1CC[C@@H]2[C@H](COC[C@H](O)CN2S(=O)(=O)c2ccccc2)O1)Nc1ccccc1`, the active concentration is > 10 µM (inactive).

For the compound `O=S(=O)(c1cccs1)N1CCCCN2[C@H](C1)[C@H](c1ccc(/C=C/c3ccccc3)cc1)[C@@H]2CO`, the active concentration is > 10 µM (inactive).

Turning to `N#C[C@H]1[C@H](c2ccccc2-c2ccccc2)[C@@H](CO)N1C(=O)Cc1ccncc1`, the active concentration was > 10 µM (inactive).

As for `O=C(c1ccccn1)N1CC[C@@H]2[C@H](CO)Nc3ccc(Br)cc3[C@@H]21`, the active concentration was > 10 µM (inactive).

Regarding `COc1cccc(C(=O)Nc2ccc3c(c2)C(=O)N(C)[C@H]2CC[C@H](CC(=O)NCCCN4CCOCC4)O[C@H]2CO3)c1`, the active concentration was > 10 µM (inactive).

Take `CC(C)CC#Cc1ccc([C@@H]2[C@H](CO)N3C(=O)CN(S(=O)(=O)c4cccc(F)c4)C[C@@H]23)cc1`: the active concentration was > 10 µM (inactive).

In the case of `C/C=C/c1ccc([C@@H]2[C@H](CO)N(C(=O)CC)C23CN(CCC(F)(F)F)C3)cc1`, the active concentration was > 10 µM (inactive).

With `O=C(c1ccc2c(c1)OCO2)N1C[C@@H]2[C@H](c3ccccc31)[C@H](CO)N2C(=O)CC1CC1`, the active concentration was > 10 µM (inactive).

Take `COc1ccc2c3c([nH]c2c1)[C@@H](CO)N(C(=O)Nc1ccc(F)cc1)CC31CN(C(=O)c2ccccc2F)C1`: the active concentration was > 10 µM (inactive).

Consider `COc1ccc2c3c(n(C)c2c1)[C@H](CO)N(C(=O)Nc1ccc(F)cc1)CC31CCN(C(=O)c2ccc3c(c2)OCO3)CC1`, for which the active concentration is > 10 µM (inactive).

As for `C/C=C/c1ccc([C@H]2[C@@H](CO)N3C(=O)CN(S(=O)(=O)c4ccccc4)C[C@@H]23)cc1`, the active concentration is > 10 µM (inactive).

On to `CN1C[C@H]2[C@@H](c3ccccc31)[C@H](CO)N2Cc1ccccc1Cl`, for which the active concentration was > 10 µM (inactive).

Consider `OC[C@@H]1Nc2ccc(-c3ccccc3)cc2[C@H]2[C@@H]1CCN2Cc1ccccc1F`, for which the active concentration was > 10 µM (inactive).

As to `O=C([C@@H]1[C@@H](CO)[C@@H]2Cn3c(ccc(C4=CCCC4)c3=O)[C@H]1N2C(=O)c1ccncc1)N1CCOCC1`, the active concentration was > 10 µM (inactive).

As for `C[C@H](O)C#Cc1ccc([C@@H]2[C@@H](CO)N3CCCCN(C(=O)c4ccc5c(c4)OCO5)C[C@H]23)cc1`, the active concentration was > 10 µM (inactive).

Consider `C/C=C/c1ccccc1[C@@H]1[C@H](C#N)N(C(C)=O)[C@H]1CO`, for which the active concentration is > 10 µM (inactive).

On to `O=C(C1CCCC1)N1CC2(C1)[C@H](c1ccccc1)[C@@H](CO)N2CC1CC1`, for which the active concentration is > 10 µM (inactive).

For the compound `COCCNC(=O)[C@H]1[C@H](CO)[C@H]2Cn3c(ccc(-c4cccc(F)c4)c3=O)[C@@H]1N2C(=O)NC(C)C`, the active concentration was > 10 µM (inactive).

Consider `O=C(NC1CCCCC1)[C@@H]1N[C@@H]2c3ccc(-c4cccc(F)c4)c(=O)n3C[C@@H]2[C@H]1CO`, for which the active concentration was > 10 µM (inactive).

Regarding `COc1cccc(S(=O)(=O)N2CCCCN3[C@H](C2)[C@@H](c2ccc(C#CCC(C)C)cc2)[C@@H]3CO)c1`, the active concentration is > 10 µM (inactive).

For the compound `OC[C@H]1[C@@H](c2ccc(-c3ccccc3F)cc2)[C@H]2CN(Cc3cncnc3)CCCCN21`, the active concentration was > 10 µM (inactive).

For `N#C[C@H]1[C@@H](c2ccccc2C2=CCCCC2)[C@H](CO)N1C(=O)C1CCOCC1`, the active concentration was > 10 µM (inactive).

For the compound `CCCNC(=O)N1[C@H](CO)[C@H](c2ccccc2-c2cccc(OC)c2)[C@@H]1C#N`, the active concentration is > 10 µM (inactive).

With `COC(=O)C[C@H]1CC[C@@H]2[C@H](COc3ccc(NS(=O)(=O)c4ccccc4Cl)cc3C(=O)N2C)O1`, the active concentration is > 10 µM (inactive).

As to `CN1C(=O)c2cc(NS(C)(=O)=O)ccc2OC[C@H]2O[C@@H](CC(=O)NC3CCCCC3)CC[C@@H]21`, the active concentration was > 10 µM (inactive).

As for `CN1CCCCN2[C@H](C1)[C@H](c1ccc(-c3ccc(F)cc3)cc1)[C@@H]2CO`, the active concentration was > 10 µM (inactive).

Take `O=C(C[C@@H]1CC[C@H]2[C@@H](COC[C@@H](O)CN2Cc2cc(F)ccc2F)O1)NCc1ccc(F)cc1`: the active concentration is > 10 µM (inactive).
